Legend:
[1] = biological target: T1, biotinylated wild-type menin and MLL-AF9 fusion protein (menin/MLL binding) (Homo sapiens, UniProt O00255); test: Assay 1: menin/MLL binding AlphaLISA assay, wild-type menin; conditions: Table 30; column head does not say wild-type or mutated menin
T1 construct: made in house; host or cells: menin: E. coli; MLL-AF9-FLAG: HEK293 cells, used as cleared lysate
T1 sequence (O00255 1-610): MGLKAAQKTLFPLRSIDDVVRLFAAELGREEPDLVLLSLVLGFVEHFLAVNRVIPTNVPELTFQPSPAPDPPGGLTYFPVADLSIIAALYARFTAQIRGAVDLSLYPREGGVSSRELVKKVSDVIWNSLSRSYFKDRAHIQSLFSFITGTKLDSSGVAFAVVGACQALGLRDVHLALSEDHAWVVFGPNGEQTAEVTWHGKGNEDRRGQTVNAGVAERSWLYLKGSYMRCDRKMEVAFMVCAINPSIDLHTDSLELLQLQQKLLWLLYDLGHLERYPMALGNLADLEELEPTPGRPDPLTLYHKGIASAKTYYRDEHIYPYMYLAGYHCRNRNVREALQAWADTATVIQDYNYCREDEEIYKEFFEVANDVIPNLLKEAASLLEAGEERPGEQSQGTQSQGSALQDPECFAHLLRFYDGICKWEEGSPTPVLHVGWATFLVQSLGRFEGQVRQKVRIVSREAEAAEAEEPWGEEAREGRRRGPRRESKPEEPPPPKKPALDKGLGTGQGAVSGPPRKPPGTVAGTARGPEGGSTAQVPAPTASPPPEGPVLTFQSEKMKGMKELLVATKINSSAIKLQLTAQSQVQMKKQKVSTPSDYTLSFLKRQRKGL
Procedure: Potencies of inhibitor compounds against menin/MLL binding were assessed by AlphaLISA assay using biotinylated (1) wild-type menin or (2) mutated menin (described in Huang et al, 2012, Nature, 482, 542-546) and MLL-AF9 fusion protein bearing a FLAG epitope at its C-terminus. Menin proteins were expressed in E. coli and covalently modified with biotin using EZ-Link™ Sulfo-NHS-Biotin (ThermoFisher Cat.No. 21217) according to manufacturer's protocol. MLL1-1,396 fused to AF91-92 and the C-terminal FLAG peptide was expressed in HEK293 cells and used as a lysate cleared at 21,000×g for 10 min.
Compounds (2 μL of solutions in DMSO) were dispensed in white 96-well half-area plates (Corning Cat.No. 3693) and incubated for 30 min at RT with 5 nM biotinylated menin and appropriate amount of MLL-AF9-FLAG lysate in 40 μL of 50 mM Tris-HCl buffer pH 7.4 containing 5% (v/v) DMSO, 50 mM NaCl, 0.01% (w/v) bovine serum albumin (BSA) and 1 mM DTT. To this incubation mixture, 40 μL of AlphaLISA anti-FLAG acceptor (PerkinElmer Cat.No. AL112C) and streptavidin donor (PerkinElmer Cat.No. 6760002) beads (10 μg/mL each) was added and incubation continued at RT for 60 min. Alpha (amplified luminescent proximity homogeneous assay) signal was measured on an Envision multi-label plate reader at the end of the incubation. All steps were conducted under dim fluorescent light.
These percent inhibition values were regressed against compound concentrations in the assay using four parameter logit non-linear curve fitting (XLFit, IDBS). The IC50 values were derived from the curve fitting as inflection points on the dose-response curves and are set out in Table 30 below.

[2] = tested on: human acute monocytic leukemia cell line MV-4-11; test: Assay 2: cell proliferation assay (ATP quantitation, CellTiter-Glo), MV-4-11; format: cell-based; conditions: MV-4-11 cells
Procedure: Potencies of inhibitor compounds against cell proliferation was assessed against the human acute monocytic leukemia cell line MV-4-11 (ATCC® CRL-9591™) based on ATP quantitation. MV-4-11 cells or toxicity control HL-60 cells (ATCC® CCL-240™) were incubated in 96-well tissue culture plates (1.67×10^4 cells in 200 μL culture media containing 10% FBS per well) with or without test compound for 72 h at 37° C., 5% CO2. After incubation, each well was mixed by pipetting and 95 μL from each well was transferred to a well in 96-well black OptiPlate® plates (PerkinElmer). An equal volume of CellTiter-Glo® Luminescent Cell Viability Assay reagent (Promega) was added to each well, followed by mixing for 5 min on an orbital plate shaker. Luminescence was measured on a Wallac EnVision 2104 Multilabel Reader (PerkinElmer) to quantitate ATP.

With `CC(C)c1ccccc1-c1cc(F)ccc1Oc1cncnc1N1CCC2(CCN(C[C@H]3CC[C@H](NC(=O)OC(C)(C)C)CC3)C2)C1` (stereo partly shown) [Example 220, tert-butyl ((1r,4r)-4-((7-(5-((5-fluoro-2′-isopropyl-[1,1′-biphenyl]-2-yl)oxy)pyrimidin-4-yl)-2,7-diazaspiro[4.4]nonan-2-yl)methyl)cyclohexyl) carbamate] the IC50 [1] was less than 100 nM and the EC50 ([2]; Homo sapiens, MV4-11, 72 h) was 100 to 1000 nM.

For `Cc1c(C#N)cccc1-c1cc(F)ccc1Oc1cncnc1N1CCC2(CCN(Cc3ccc4[nH]c(=O)[nH]c4c3)C2)C1` (stereo not shown) [Example 230, 5′-fluoro-2-methyl-2′-((4-(7-((2-oxo-2,3-dihydro-1H-benzo[d]imidazol-5-yl)methyl)-2,7-diazaspiro[4.4]nonan-2-yl)pyrimidin-5-yl)oxy)-[1,1′-biphenyl]-3-carbonitrile], the IC50 [1] was less than 100 nM and the EC50 ([2]; Homo sapiens, MV4-11, 72 h) was 100 to 1000 nM.

With `CC(C)c1ccccc1-c1cc(F)ccc1Nc1cncnc1N1CC2(CN(CC3CCOCC3)C2)C1` [Example 15, N-(5-fluoro-2′-isopropyl-[1,1′-biphenyl]-2-yl)-4-(6-((tetrahydro-2H-pyran-4-yl)methyl)-2,6-diazaspiro[3.3]heptan-2-yl)pyrimidin-5-amine] the IC50 [1] was less than 100 nM and the EC50 ([2]; Homo sapiens, MV4-11, 72 h) was 100 to 1000 nM.

In the case of `CC(=O)Nc1ccc(CN2CCC3(CCN(c4ncncc4Oc4ccc(F)cc4-c4ccccc4C(C)C)C3)C2)cc1` (stereo not shown) [Example 221, N-(4-((7-(5-((5-fluoro-2′-isopropyl-[1,1′-biphenyl]-2-yl)oxy)pyrimidin-4-yl)-2,7-diazaspiro[4.4]nonan-2-yl)methyl)phenyl) acetamide], the IC50 [1] is reported as less than 100 nM and the EC50 ([2]; Homo sapiens, MV4-11, 72 h) is reported as 100 to 1000 nM.

`CC(C)N(C(=O)c1cc(F)ccc1Oc1cncnc1N1CCC2(CCC(N)(Cc3ccc(C#N)cc3)C2)C1)C(C)C` (single isomer, unassigned) [Example 22A, 2-((4-(7-amino-7-(4-cyanobenzyl)-2-azaspiro[4.4]nonan-2-yl)pyrimidin-5-yl)oxy)-5-fluoro-N,N-diisopropylbenzamide] showed an IC50 [1] of less than 100 nM and an EC50 ([2]; Homo sapiens, MV4-11, 72 h) of no less than 1000 nM.

Compound `CC(C)n1nccc1-c1cc(F)ccc1Oc1cncnc1N1CC2(CN(CC3CCCC(F)(F)C3)C2)C1` (stereo not shown) [Example 231, 2-((3,3-difluorocyclohexyl)methyl)-6-(5-(4-fluoro-2-(1-isopropyl-1H-pyrazol-5-yl)phenoxy)pyrimidin-4-yl)-2,6-diazaspiro[3.3] heptane] has an IC50 [1] of less than 100 nM and an EC50 ([2]; Homo sapiens, MV4-11, 72 h) of 100 to 1000 nM.

For `CC(O)c1ccccc1-c1cc(F)ccc1Oc1cncnc1N1CCC2(CCN(Cc3ccc4[nH]c(=O)[nH]c4c3)C2)C1` (single isomer, unassigned) [Example 60D, 5-((7-(5-((5-fluoro-2′-(1-hydroxyethyl)-[1,1′-biphenyl]-2-yl)oxy)pyrimidin-4-yl)-2,7-diazaspiro[4.4]nonan-2-yl)methyl)-1H-benzo[d]imidazol-2(3H)-one], the EC50 ([2]; 72 h) was less than 100 nM.

`CC(O)c1ccccc1-c1cc(F)ccc1Oc1cncnc1N1CCC2(CCN(Cc3ccc4[nH]c(=O)[nH]c4c3)C2)C1` (single isomer, unassigned) [Example 60C, 5-((7-(5-((5-fluoro-2′-(1-hydroxyethyl)-[1,1′-biphenyl]-2-yl)oxy)pyrimidin-4-yl)-2,7-diazaspiro[4.4]nonan-2-yl)methyl)-1H-benzo[d]imidazol-2(3H)-one] was tested, and the EC50 ([2]; 72 h) was less than 100 nM.

`CC(C)c1ncncc1-c1cc(F)ccc1Oc1cncnc1N1CCC2(CCC(Cc3ccccc3)C2)C1` (stereo not shown) [Example 59, 7-benzyl-2-(5-(4-fluoro-2-(4-isopropylpyrimidin-5-yl)phenoxy)pyrimidin-4-yl)-2-azaspiro[4.4]nonane] was tested, and the IC50 [1] was no less than 1000 nM.

`CC(C)c1ncncc1-c1cc(F)ccc1Oc1cncnc1N1CCC2(CC(NCc3ccc(F)cc3)CO2)C1` (stereo not shown) [Example 20, 7-(5-(4-fluoro-2-(4-isopropylpyrimidin-5-yl)phenoxy)pyrimidin-4-yl)-N-(4-fluorobenzyl)-1-oxa-7-azaspiro[4.4]nonan-3-amine] gave an IC50 [1] of 100 to 1000 nM.

With `CC(C)n1nccc1-c1cc(F)ccc1Oc1cnc(Cl)nc1N1CCC2(CCN(Cc3ccc4[nH]c(=O)[nH]c4c3)C2)C1` (stereo not shown) [Example 46, 5-((7-(2-chloro-5-(4-fluoro-2-(1-isopropyl-1H-pyrazol-5-yl)phenoxy)pyrimidin-4-yl)-2,7-diazaspiro[4.4]nonan-2-yl)methyl)-1,3-dihydro-2H-benzo[d]imidazol-2-one] the IC50 [1] was 100 to 1000 nM.

In the case of `CNC(=O)c1csc(N2CCC3(CCN(c4ncncc4Oc4ccc(F)cc4-c4ccc(C#N)cc4C4CC4)C3)C2)n1` (stereo not shown) [Example 57, 2-(7-(5-((4′-cyano-2′-cyclopropyl-5-fluoro-[1,1′-biphenyl]-2-yl)oxy)pyrimidin-4-yl)-2,7-diazaspiro[4.4]nonan-2-yl)-N-methylthiazole-4-carboxamide], the IC50 [1] is reported as less than 100 nM.

In the case of `CC(C)c1ccccc1-c1cc(F)ccc1Nc1cnccc1N1CC2(CN(CC3CCOCC3)C2)C1` [Example 30, N-(5-fluoro-2′-isopropyl-[1,1′-biphenyl]-2-yl)-4-(6-((tetrahydro-2H-pyran-4-yl)methyl)-2,6-diazaspiro[3.3]heptan-2-yl)pyridin-3-amine], the IC50 [1] is reported as less than 100 nM.

For `CCc1ccccc1-c1cc(F)ccc1Nc1cncnc1N1CCC2(CC1)CN(CC(C)(C)O)C2` [Example 71, 1-(7-(5-((2′-ethyl-5-fluoro-[1,1′-biphenyl]-2-yl)amino)pyrimidin-4-yl)-2,7-diazaspiro[3.5]nonan-2-yl)-2-methylpropan-2-ol], the IC50 [1] was less than 100 nM.

`CC(C)c1ncncc1-c1cc(F)ccc1Nc1cncnc1N1CC2(CN(CC3CCOCC3)C2)C1` [Example 244, N-(4-fluoro-2-(4-isopropylpyrimidin-5-yl)phenyl)-4-(6-((tetrahydro-2H-pyran-4-yl)methyl)-2,6-diazaspiro[3.3]heptan-2-yl) pyrimidin-5-amine] was tested, and the IC50 [1] was less than 100 nM.

For `N#Cc1ccc(-c2cc(F)ccc2Oc2cncnc2N2CCC3(CCC(N)(Cc4ccccc4)C3)C2)c(C2CC2)c1` (single isomer, unassigned) [Example 250A, 2′-((4-(7-amino-7-benzyl-2-azaspiro[4.4]nonan-2-yl)pyrimidin-5-yl)oxy)-2-cyclopropyl-5′-fluoro-[1,1′-biphenyl]-4-carbonitrile], the IC50 [1] was 100 to 1000 nM.

`CC(O)c1ccccc1-c1cc(F)ccc1Oc1cncnc1N1CCC2(CCN(Cc3ccc4[nH]c(=O)[nH]c4c3)C2)C1` (single isomer, unassigned) [Example 60B, 5-((7-(5-((5-fluoro-2′-(1-hydroxyethyl)-[1,1′-biphenyl]-2-yl)oxy)pyrimidin-4-yl)-2,7-diazaspiro[4.4]nonan-2-yl)methyl)-1H-benzo[d]imidazol-2(3H)-one] gave an EC50 ([2]; 72 h) of less than 100 nM.

For `CC(C)N(C)C(=O)c1cc(F)ccc1Oc1cncnc1N1CCC2(CCN(Cc3cccc(N4CCOC4=O)c3)C2)C1` (stereo not shown) [Example 61, 5-fluoro-N-isopropyl-N-methyl-2-((4-(7-(3-(2-oxooxazolidin-3-yl)benzyl)-2,7-diazaspiro[4.4]nonan-2-yl)pyrimidin-5-yl)oxy)benzamide], the IC50 [1] was 100 to 1000 nM.

Work on `N#Cc1ccc(-c2cc(F)ccc2Oc2cncnc2N2CCC3(CCN(c4nc(C(=O)O)cs4)C3)C2)c(C2CC2)c1` (stereo not shown) [Example 56, 2-(7-(5-((4′-cyano-2′-cyclopropyl-5-fluoro-[1,1′-biphenyl]-2-yl)oxy)pyrimidin-4-yl)-2,7-diazaspiro[4.4]nonan-2-yl)thiazole-4-carboxylicacid] yielded an IC50 [1] of no less than 1000 nM.

Source: US12312359B2 (Vitae Pharmaceuticals, LLC, priority 2016, dated 2025)
